The source of these data is ChEMBL document CHEMBL2074571, “The mouse Bcrp1/Mxr/Abcp gene: amplification and overexpression in cell lines selected for resistance to topotecan, mitoxantrone, or doxorubicin” (Cancer Res, 1999).

Molecules are shown by their SMILES.

Assay type in all cases: functional, cell-based
The target in series [1] is T1, Broad substrate specificity ATP-binding cassette transporter ABCG2 (Mus musculus, UniProt Q7TMS5).
T1 sequence (Q7TMS5 whole entry): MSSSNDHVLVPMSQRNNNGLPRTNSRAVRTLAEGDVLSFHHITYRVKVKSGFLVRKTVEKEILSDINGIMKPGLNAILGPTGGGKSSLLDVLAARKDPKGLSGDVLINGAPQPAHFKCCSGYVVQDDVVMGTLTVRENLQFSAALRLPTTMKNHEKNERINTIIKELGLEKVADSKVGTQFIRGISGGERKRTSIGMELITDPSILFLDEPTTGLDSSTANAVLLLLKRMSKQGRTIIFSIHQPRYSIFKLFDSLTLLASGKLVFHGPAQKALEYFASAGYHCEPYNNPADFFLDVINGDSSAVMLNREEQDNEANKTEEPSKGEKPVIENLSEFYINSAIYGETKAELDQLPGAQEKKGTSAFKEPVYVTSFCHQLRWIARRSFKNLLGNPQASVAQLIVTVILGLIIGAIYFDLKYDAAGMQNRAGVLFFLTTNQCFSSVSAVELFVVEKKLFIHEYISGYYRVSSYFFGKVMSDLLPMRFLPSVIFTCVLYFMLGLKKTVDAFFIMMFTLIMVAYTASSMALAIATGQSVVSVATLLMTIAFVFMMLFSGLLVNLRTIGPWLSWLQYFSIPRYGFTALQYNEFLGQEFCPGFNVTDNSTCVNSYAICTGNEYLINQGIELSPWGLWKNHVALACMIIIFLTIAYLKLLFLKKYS
The experiment in a line: TP_TRANSPORTER: cell accumulation in MEF3.8, M32 and T6400 cells. The following applies: mef3.8;m32;t6400.

Series [2] concerns the target T1, Broad substrate specificity ATP-binding cassette transporter ABCG2. The experiment in a line: TP_TRANSPORTER: cell accumulation in KOT52 and D320 cells.
The target is the same in series [3]. The experiment in a line: TP_TRANSPORTER: increase in mitoxantrone intracellular accumulation (Mitoxantrone: 20 uM, GF120918: 2 uM) in MEF3.8, M32 and T6400 cells. The following applies: mef3.8;m32;t6400, 2 µM.
The target is the same in series [4]. The experiment in a line: TP_TRANSPORTER: increase in mitoxantrone intracellular accumulation (Mitoxantrone: 20 uM, GF120918: 2 uM) in KOT52 and D320 cells. To be noted: kot52;d320, 2 µM.

With `O=C1c2c(O)ccc(O)c2C(=O)c2c(NCCNCCO)ccc(NCCNCCO)c21` [MITOXANTRONE], the Activity result in series [1] and in series [2] was “substrate [+]” throughout.
For `COc1cc2c(cc1OC)CN(CCc1ccc(NC(=O)c3cccc4c(=O)c5cccc(OC)c5[nH]c34)cc1)CC2.Cl` [ELACRIDAR HYDROCHLORIDE], the Activity entry in series [3] and in series [4] was “inhibitor [+]” throughout.
